Columns and labels:
[1] = test system: ovarian cancer primary tumor cells; test: Confocal fluorescent microscopy of dyed primary tumor cells, dye combinations and addition sequences (Example 1); assay type: cell-based
Protocol: A 96 round bottom well plate was seeded with a single cell suspension of about 2,500 ovarian cancer primary tumor cells/20 μl/well at day 0. In each well, 80 μl of DMEM/2% alpha serum was added on top to the total volume of 100 μl/well. Dyes were prepared at 2-fold the desired final concentrations on the day of imaging. At day 3, 100 μL of dyeing mix was carefully added to each well to avoid disturbing the cells, to a final 1-fold concentration of dyes. Cells were incubated with dyes at 37° C. For this example, the dyes used were a membrane-permeable fluorescent dye (CYQUANT® GR, Thermo Fisher Scientific, Waltham, Mass.) and a membrane-impermeable fluorescent quenching dye (DRAQ7™, Thermo Fisher Scientific, Waltham, Mass.). The following dye combinations and sequences of dye addition were tested in triplicates, and similar results were seen among the triplicates. FIGS. 1A-1G show exemplary results of the dye combination and addition sequences, as follows.
FIG. 1A is a confocal fluorescent microscopy image of a sample prepared by incubation with the membrane-impermeable fluorescent quenching dye for 30 min followed by addition of the masking agent (Diammonium 5-[(E)-(4-acetamido-2-sulfonatophenyl)diazenyl]-6-amino-4-hydroxy-2-naphthalenesulfonate; CAS Reg. No. 302912-22-7, Thermo Fischer Scientific, Waltham, Mass.) and incubation for an additional 1 h.
FIG. 1B is a confocal fluorescent microscopy image of a sample prepared by incubation with the membrane-impermeable fluorescent quenching dye for 30 min.
FIG. 1C is a confocal fluorescent microscopy image of a sample prepared by incubation with the membrane-impermeable fluorescent quenching dye for 30 min, followed by addition of the membrane-permeable fluorescent dye and incubation for an additional 1 h.
FIG. 1D is a confocal fluorescent microscopy image of a sample prepared by incubation with the membrane-impermeable fluorescent quenching dye for 30 min, followed by addition of the membrane-permeable fluorescent dye and masking reagent and incubation for an additional 1 h.
FIG. 1E is a confocal fluorescent microscopy image of a sample prepared by incubation with the membrane-permeable fluorescent dye alone for 1 h.
FIG. 1F is a confocal fluorescent microscopy image of a sample prepared by incubation with the membrane-permeable fluorescent dye alone for 1 h, followed by addition of the membrane-impermeable fluorescent quenching dye and incubation for an additional 30 min.
FIG. 1G is a confocal fluorescent microscopy image of a sample prepared by incubation with the membrane-permeable fluorescent dye and masking reagent for 1 h, followed by addition of the membrane-impermeable fluorescent quenching dye and incubation for an additional 30 min.

[2] = test system: ovarian cancer primary tumor cells; test: Dynamic confocal fluorescent microscopy after adding quenching dye to cells pre-dyed with membrane-permeable dye (Example 2); assay type: cell-based; details: for change of fluorescence intensity over time: 0-45 min after addition of quenching dye; for dyeing of the nonviable cells: by 45 min after addition of quenching dye
Protocol: In order to further examine the dyeing behavior and kinetics of the membrane-impermeable fluorescent quenching dye and the membrane-permeable fluorescent dye of Example 1 when mixed together, an additional experiment was performed on day 7 of culture as follows.
On day 7, 20 μL of the membrane-permeable fluorescent dye was added at 6× concentration to each well. The cells were incubated with dye at 37° C. for 1 hour. Confocal fluorescent microscopy was performed after incubation. About 20 μL of the membrane-impermeable fluorescent quenching dye was added directly to the same well on the stage at 6× concentration without disturbing the cells.
Dynamic confocal fluorescent microscopy images were taken of the cells immediately after addition of the membrane-impermeable fluorescent quenching dye (FIG. 2A, 2B), as well as at 5 min (FIG. 2C, 2D), 20 min (FIG. 2E, 2F), 30 min (FIG. 2G, 2H) and 45 min (FIG. 2I, 2J) after addition.

[3] = FIG. 1D: quenching dye 30 min, then membrane-permeable dye and masking reagent, additional 1 h
[4] = FIG. 1G: membrane-permeable dye and masking reagent 1 h, then quenching dye, additional 30 min
[5] = FIG. 1C: quenching dye 30 min, then membrane-permeable dye, additional 1 h
[6] = FIG. 1F: membrane-permeable dye 1 h, then quenching dye, additional 30 min

Row | Molecule | signal observed by confocal fluorescent microscopy ([1]; FIG. 1A: quenching dye 30 min, then masking agent, additional 1 h) | signal observed by confocal fluorescent microscopy [1, 3] | signal observed by confocal fluorescent microscopy [1, 4] | signal observed by confocal fluorescent microscopy [1, 5] | signal observed by confocal fluorescent microscopy ([1]; FIG. 1E: membrane-permeable fluorescent dye alone, 1 h, 37° C.) | signal observed by confocal fluorescent microscopy [1, 6] | cells dyed by the dye alone ([1]; dye alone) | change of fluorescence intensity over time [2] | dyeing of the nonviable cells [2] | signal observed by confocal fluorescent microscopy ([1]; FIG. 1B: membrane-impermeable fluorescent quenching dye alone, 30 min, 37° C., day 3) | time after addition of the dye at which the brightest images (fluorescence intensity) were acquired ([2]; day 7, FIG. 2I, 2J) [min] | time after addition at which green cells becoming red is visually noticeable ([2]; day 7, membrane-permeable dye 1 hour at 37° C., then quenching dye added) [min]
1 | CC(=O)Nc1ccc(/N=N/c2c(N)ccc3cc(S(=O)(=O)O)cc(O)c23)c(S(=O)(=O)O)c1.N.N [masking agent, Diammonium 5-[(E)-(4-acetamido-2-sulfonatophenyl)diazenyl]-6-amino-4-hydroxy-2-naphthalenesulfonate] | no signal was observed | No red signal was observed | No red signal was observed | – | – | – | – | – | – | – | – | –
2 | CYQUANT® GR [membrane-permeable fluorescent dye] | – | discrete green signals were observed | discrete green signals were observed | discrete green signals | discrete green signals were observed | discrete green signals | dyed both viable and nonviable cells | significant decrease over time | negligible | – | – | –
3 | DRAQ7™ | – | – | – | discrete red signals were observed | – | discrete red signals were observed | – | increase over time | positive | discrete red signals were observed | 45 | 20 to 30
